Values joined by “and” are separate entries in the source; they are usually repeats but may differ in a detail not shown here. Equal entries are not always repeated. *1 amine or outer side, *2 acyl side, *3 side chain or, on linkers, in order; H or OH if unused. Where a SMILES comes first, the peptide text is derived from it. [ ]: non-standard residue; d: D form. X1 = O=C([C@H](Cc1c[nH]c2c(-c3cccc(C(F)(F)F)c3)cccc12)N[*:1])[*:2]; Trp(7-Br) = N[C@@H](Cc1c[nH]c2c(Br)cccc12)C(=O)O
Assays:
E. coli XL10 [1] = assay: Bacterial minimal inhibitory concentration, 18 h growth inhibition assay; format: cell-based
E. coli XL10 [2] = assay: Minimal bactericidal concentration (Petri dish and spot assay); format: cell-based
Method: 0.5%. After incubation, the cells were washed 2 × 0.5 mg/mL heparin sulfate in PBS and then washed with 2 × FluoroBrite DMEM. FluoroBrite DMEM (200 µL) was added to each well for imaging. 1 drop of NucRed nuclear counterstain was added to visualize the cell nuclei. The cells were imaged using a Nikon microscope equipped with an Orca-Fire camera. Fiji was used for […]
. Fluorescence images were background corrected and individual nuclei were segmented based on a threshold intensity in the NucRed […]
Mueller-Hinton II cation-adjusted broth (10 mL) was inoculated with E. coli XL10 and incubated overnight with shaking at 37°C. The next day, the overnight culture was diluted to an OD600 of 0.5 […]
OD600 0.5 culture was further diluted 20-fold into fresh Mueller-Hinton II cation-adjusted broth […]
From each triplicate experiment, 100 µL of the 18-hour minimal inhibitory growth culture (see above) was plated on a petri dish containing Mueller-Hinton II cation-adjusted agar. […] The next morning, the bacterial growth on each triplicate plate was assessed. […]
Using a multichannel pipette, 3 μL from each triplicate of the 18-hour minimal inhibitory growth culture (see above) was spotted on a square petri dish containing Mueller-Hinton II cation-adjusted agar. […] The next morning, the bacterial growth on each triplicate plate was assessed. […]

4V = format: biochemical

Row | Molecule | fold decrease in MIC relative to the parent peptide (RW)3 (E. coli XL10 [1]) | fold decrease in MBC relative to the parent peptide (RW)3 (E. coli XL10 [2]) | Average Percent Conversion (4V) [%] | Percent Br2 Conversion (EIC) (4V) [%] | Percent Br Conversion (EIC) (4V) | Total Percent Conversion (4V) | 4V-catalyzed conversion to the monobrominated product (4V; unmodified bioactive peptides, 1 mM peptide, 10 mM NaBr, 25 μM 4V, 25 mM HEPES pH 7.4, 24 h ambient, n = 3 independent experiments) [%]
1 | N=C(N)NCCC[C@H](NC(=O)[C@H](Cc1c[nH]c2ccccc12)NC(=O)[C@H](CCCNC(=N)N)NC(=O)[C@H](Cc1c[nH]c2ccccc12)NC(=O)[C@@H](N)CCCNC(=N)N)C(=O)N[C@@H](Cc1c[nH]c2c(Br)cccc12)C(N)=O [Br-(RW)3] (H-RWRWR[Trp(7-Br)]-NH2; N-terminus assumed) | approximately 4 fold | approximately 4 fold | – | – | – | – | –
2 | N=C(N)NCCC[C@H](NC(=O)[C@H](Cc1c[nH]c2ccccc12)NC(=O)[C@H](CCCNC(=N)N)NC(=O)[C@H](Cc1c[nH]c2ccccc12)NC(=O)[C@@H](N)CCCNC(=N)N)C(=O)N[C@@H](Cc1c[nH]c2c(-c3cccc(C(F)(F)F)c3)cccc12)C(N)=O [CF3(−RW)3] (H-RWRWR[X1]-NH2; N-terminus assumed) | – | 4 fold | – | – | – | – | –
3 | galanin | – | – | 21.379 | 0 | 21.5543% and 21.2037% | 21.2037% and 21.5543% | 16.8 ± 0.2

From article PMC13184988, “Enzymatic Bromination of Native Peptides for Late-Stage Structural Diversification via Suzuki–Miyaura Coupling” (ACS Chemical Biology, 2026)
